Data: patent US8912178B2, “mTOR selective kinase inhibitors” (Xcovery Holdings Company, LLC, priority 2010, dated 2014)

Key:
U87-MG cells = assay: Proliferation assay (Alamar blue), U87-MG; type: cell-based; settings: Homo sapiens, U-87 MG, 48 h, 46-h incubation + 2-h Alamar blue, read-out: IC50 against proliferation of U87-MG cells
Description: (§1) Cells (U87-MG, A375, HeLa, A549, MCF7, and MCF7 ADR-res) are cultured in DMEM with 10% fetal bovine serum and streptomycin/penicillin. Solutions of the test compounds (1 μL) are spotted onto a 96-well culture plate, followed by addition of cells (1×10^4) in 100 μL. After 46-h incubation, 10 μL of Alamar blue reagent is added to each well. After 2-h, the excitation/emission wavelengths at 544/590 nm are measured using Fluostar.

A549 cells = assay: Proliferation assay (Alamar blue), A549; type: cell-based; settings: Homo sapiens, 48 h; A549, 46-h incubation + 2-h Alamar blue; read-out: IC50 against proliferation of A549 cells
Description: as §1

mTOR = biological target: T1, mTOR (Homo sapiens, UniProt P42345); assay: Kinase competition binding assay (Ambit Biosciences), mTOR; settings: tested at Ambit Biosciences; read-out: IC50 against mTOR
T1 construct: purchased Ambit Biosciences (contract assay)
Description: (§2) Assays are performed as described in Fabian et al. (2005) Nature Biotechnology, vol. 23, p. 329 and in Karaman et al. (2008) Nature Biotechnology, vol. 26, p. 127.
(§3) Kinase assays. For most assays, kinase-tagged T7 phage strains are grown in parallel in 24-well blocks in an E. coli host derived from the BL21 strain. E. coli are grown to log-phase and are infected with T7 phage from a frozen stock (multiplicity of infection˜0.1) and are incubated with shaking at 32° C. until lysis (˜90 minutes). The lysates are centrifuged (6,000×g) and filtered ([…]) to remove cell debris. The remaining kinases are produced in HEK-293 cells and subsequently tagged with DNA for qPCR detection. Streptavidin-coated magnetic beads are treated with biotinylated small molecule ligands for 30 minutes at room temperature to generate affinity resins for kinase assays. The liganded beads are blocked with excess biotin and washed with blocking buffer (SeaBlock (Pierce), 1% BSA, 0.05% Tween 20, 1 mM DTT) to remove unbound ligand and to reduce non-specific phage binding. Binding reactions are assembled by combining kinases, liganded affinity beads, and test compounds in 1× binding buffer (20% SeaBlock, 0.17×PBS, 0.05% Tween 20, 6 mM DTT). Test compounds are prepared as 40× stocks in 100% DMSO and directly diluted into the assay. All reactions are performed in polypropylene 384-well plates in a final volume of 0.04 ml. The assay plates are incubated at room temperature with shaking for 1 hour and the affinity beads are washed with wash buffer (1×PBS, 0.05% Tween 20). The beads are then re-suspended in elution buffer (1×PBS, 0.05% Tween 20, 0.5 mM non-biotinylated affinity ligand) and are incubated at room temperature with shaking for 30 minutes. The kinase concentration in the eluates is measured by qPCR.
(§4) Compounds were tested using the above assay at Ambit Biosciences (San Diego, Calif., USA).

PI3Kα = biological target: T2, PI3Kα (Homo sapiens, UniProt P42336); assay: Kinase competition binding assay (Ambit Biosciences), PI3Kα; settings: tested at Ambit Biosciences; read-out: IC50 against PI3Kα
T2 construct: purchased Ambit Biosciences (contract assay)
T2 sequence (P42336 whole entry): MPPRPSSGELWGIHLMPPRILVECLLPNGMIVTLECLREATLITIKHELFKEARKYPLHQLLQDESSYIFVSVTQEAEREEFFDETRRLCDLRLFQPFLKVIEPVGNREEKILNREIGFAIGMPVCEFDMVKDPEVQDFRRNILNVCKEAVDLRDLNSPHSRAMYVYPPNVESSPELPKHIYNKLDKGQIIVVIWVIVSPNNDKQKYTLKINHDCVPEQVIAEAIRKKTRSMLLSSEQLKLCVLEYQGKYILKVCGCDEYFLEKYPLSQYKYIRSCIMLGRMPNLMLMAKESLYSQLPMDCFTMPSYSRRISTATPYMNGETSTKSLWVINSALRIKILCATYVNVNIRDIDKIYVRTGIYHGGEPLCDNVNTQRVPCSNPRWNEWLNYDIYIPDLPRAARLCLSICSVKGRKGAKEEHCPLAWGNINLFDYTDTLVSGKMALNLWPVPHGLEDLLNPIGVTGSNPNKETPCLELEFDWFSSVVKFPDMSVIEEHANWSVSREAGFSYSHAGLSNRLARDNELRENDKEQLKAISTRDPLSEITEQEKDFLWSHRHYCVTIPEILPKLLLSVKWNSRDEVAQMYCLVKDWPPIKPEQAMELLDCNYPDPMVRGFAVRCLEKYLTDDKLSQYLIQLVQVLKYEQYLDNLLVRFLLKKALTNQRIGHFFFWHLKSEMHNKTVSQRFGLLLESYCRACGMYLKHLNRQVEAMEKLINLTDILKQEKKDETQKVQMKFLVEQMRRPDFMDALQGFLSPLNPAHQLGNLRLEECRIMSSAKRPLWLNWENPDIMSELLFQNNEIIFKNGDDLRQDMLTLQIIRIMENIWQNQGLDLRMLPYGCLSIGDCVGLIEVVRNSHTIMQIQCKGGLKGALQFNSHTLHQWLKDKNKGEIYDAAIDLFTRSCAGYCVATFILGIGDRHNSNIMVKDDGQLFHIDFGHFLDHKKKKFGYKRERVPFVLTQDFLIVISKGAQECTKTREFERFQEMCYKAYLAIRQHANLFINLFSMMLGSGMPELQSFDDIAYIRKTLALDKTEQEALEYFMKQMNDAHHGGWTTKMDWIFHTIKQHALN
Description: as §2, §3, §4

PI3Kβ = biological target: T3, PI3Kβ (Homo sapiens, UniProt P42338); assay: Kinase competition binding assay (Ambit Biosciences), PI3Kβ; settings: tested at Ambit Biosciences; read-out: IC50 against PI3Kβ
T3 construct: purchased Ambit Biosciences (contract assay)
T3 sequence (P42338 whole entry): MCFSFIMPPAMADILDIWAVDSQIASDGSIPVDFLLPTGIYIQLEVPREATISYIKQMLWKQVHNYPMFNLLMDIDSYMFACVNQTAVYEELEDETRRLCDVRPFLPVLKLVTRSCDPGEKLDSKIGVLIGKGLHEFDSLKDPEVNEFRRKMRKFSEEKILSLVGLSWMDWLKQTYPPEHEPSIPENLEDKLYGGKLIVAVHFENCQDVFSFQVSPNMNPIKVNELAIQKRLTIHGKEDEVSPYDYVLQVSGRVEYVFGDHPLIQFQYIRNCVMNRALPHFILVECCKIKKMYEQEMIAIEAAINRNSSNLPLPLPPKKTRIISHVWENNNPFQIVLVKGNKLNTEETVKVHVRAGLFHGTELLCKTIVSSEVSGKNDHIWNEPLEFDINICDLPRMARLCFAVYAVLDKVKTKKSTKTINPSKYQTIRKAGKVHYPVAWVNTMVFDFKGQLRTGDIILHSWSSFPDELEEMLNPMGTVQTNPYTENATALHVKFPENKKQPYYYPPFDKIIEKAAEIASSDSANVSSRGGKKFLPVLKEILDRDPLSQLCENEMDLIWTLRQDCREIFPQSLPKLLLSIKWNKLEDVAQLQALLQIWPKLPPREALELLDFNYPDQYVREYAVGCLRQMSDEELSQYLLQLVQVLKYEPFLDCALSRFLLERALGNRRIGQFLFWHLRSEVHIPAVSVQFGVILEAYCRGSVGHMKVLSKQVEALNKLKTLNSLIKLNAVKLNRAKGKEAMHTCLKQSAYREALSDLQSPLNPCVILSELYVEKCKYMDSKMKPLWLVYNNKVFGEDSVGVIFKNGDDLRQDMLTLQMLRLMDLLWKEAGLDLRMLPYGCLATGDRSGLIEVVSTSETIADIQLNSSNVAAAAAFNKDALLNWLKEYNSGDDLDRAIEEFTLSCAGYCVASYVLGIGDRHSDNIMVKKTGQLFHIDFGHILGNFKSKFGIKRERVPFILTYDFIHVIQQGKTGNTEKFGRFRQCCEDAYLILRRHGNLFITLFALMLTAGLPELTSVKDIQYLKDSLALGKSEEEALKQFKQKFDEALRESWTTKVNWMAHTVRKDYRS
Description: as §2, §3, §4

PI3Kδ = biological target: T4, PI3Kδ (Homo sapiens, UniProt O00329); assay: Kinase competition binding assay (Ambit Biosciences), PI3Kδ; settings: tested at Ambit Biosciences; read-out: IC50 against PI3Kδ
T4 construct: purchased Ambit Biosciences (contract assay)
T4 sequence (O00329 1-1044): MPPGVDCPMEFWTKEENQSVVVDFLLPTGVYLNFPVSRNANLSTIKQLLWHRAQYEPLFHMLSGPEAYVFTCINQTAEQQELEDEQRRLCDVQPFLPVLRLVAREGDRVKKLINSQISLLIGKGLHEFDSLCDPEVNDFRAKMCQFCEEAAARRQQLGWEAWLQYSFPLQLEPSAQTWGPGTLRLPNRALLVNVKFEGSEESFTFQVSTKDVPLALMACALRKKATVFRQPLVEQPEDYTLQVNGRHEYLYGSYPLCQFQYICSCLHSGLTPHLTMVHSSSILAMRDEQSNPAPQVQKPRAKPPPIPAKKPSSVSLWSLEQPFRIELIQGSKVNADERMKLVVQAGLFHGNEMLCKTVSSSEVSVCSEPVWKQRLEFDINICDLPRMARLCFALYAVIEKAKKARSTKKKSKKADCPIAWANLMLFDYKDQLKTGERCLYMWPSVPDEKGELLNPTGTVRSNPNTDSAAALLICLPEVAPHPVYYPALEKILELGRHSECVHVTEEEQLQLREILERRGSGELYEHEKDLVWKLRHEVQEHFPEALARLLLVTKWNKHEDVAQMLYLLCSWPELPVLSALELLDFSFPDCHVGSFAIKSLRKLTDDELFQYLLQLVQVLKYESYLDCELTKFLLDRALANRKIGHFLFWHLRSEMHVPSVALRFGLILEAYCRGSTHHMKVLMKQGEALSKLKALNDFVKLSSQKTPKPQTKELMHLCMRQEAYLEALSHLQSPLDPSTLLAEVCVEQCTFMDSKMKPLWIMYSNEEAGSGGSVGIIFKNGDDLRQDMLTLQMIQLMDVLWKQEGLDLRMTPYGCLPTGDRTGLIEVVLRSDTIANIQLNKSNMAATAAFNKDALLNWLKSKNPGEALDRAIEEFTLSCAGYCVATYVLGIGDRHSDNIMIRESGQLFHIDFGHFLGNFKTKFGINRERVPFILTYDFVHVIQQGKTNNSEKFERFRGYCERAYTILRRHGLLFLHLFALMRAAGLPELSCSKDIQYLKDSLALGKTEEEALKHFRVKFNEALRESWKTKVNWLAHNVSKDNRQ
Description: as §2, §3, §4

PI3Kγ = biological target: T5, PI3Kγ (Homo sapiens, UniProt P48736); assay: Kinase competition binding assay (Ambit Biosciences), PI3Kγ; settings: tested at Ambit Biosciences; read-out: IC50 against PI3Kγ
T5 construct: purchased Ambit Biosciences (contract assay)
T5 sequence (P48736 whole entry): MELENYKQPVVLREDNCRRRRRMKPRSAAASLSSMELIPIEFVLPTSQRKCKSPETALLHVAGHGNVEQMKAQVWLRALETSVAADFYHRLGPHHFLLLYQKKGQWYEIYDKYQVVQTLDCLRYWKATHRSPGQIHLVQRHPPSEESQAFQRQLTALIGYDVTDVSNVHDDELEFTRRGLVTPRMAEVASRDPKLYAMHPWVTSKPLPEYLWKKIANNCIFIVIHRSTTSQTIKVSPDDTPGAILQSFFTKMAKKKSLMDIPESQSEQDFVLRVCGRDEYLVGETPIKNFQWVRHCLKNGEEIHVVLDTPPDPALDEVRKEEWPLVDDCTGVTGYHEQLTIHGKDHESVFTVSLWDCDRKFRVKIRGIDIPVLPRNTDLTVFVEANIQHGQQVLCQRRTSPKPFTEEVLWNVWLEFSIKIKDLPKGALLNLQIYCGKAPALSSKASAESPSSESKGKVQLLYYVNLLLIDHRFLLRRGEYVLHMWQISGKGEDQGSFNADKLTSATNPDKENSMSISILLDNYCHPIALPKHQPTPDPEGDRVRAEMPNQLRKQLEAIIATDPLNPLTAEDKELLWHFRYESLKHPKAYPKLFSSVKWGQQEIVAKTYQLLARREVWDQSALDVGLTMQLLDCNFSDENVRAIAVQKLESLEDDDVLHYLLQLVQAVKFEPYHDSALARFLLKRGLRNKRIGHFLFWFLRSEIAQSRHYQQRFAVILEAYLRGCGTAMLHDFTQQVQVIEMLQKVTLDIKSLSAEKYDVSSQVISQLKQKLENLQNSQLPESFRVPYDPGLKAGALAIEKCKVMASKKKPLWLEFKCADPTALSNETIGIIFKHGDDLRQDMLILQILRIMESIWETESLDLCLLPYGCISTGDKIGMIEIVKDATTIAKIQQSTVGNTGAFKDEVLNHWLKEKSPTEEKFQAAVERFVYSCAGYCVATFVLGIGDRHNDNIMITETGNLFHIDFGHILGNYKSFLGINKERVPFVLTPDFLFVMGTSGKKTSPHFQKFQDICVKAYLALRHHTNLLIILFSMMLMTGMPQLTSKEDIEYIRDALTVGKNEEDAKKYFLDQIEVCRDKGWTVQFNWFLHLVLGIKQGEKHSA
Description: as §2, §3, §4

Compound	IC50 (U87-MG cells)	IC50 (A549 cells)	IC50 (mTOR)	IC50 (PI3Kα)	IC50 (PI3Kβ)	IC50 (PI3Kδ)	IC50 (PI3Kγ)
CNC(=O)Nc1ccc(-c2nc(N3CCOCC3)nc3c2cnn3C2CCC(CO)CC2)cc1 (stereo not shown) [Example 20, N-(4-{1-[4-(hydroxymethyl)cyclohexyl]-6-morpholin-4-ylpyrazolo[4,5-e]pyrimidin-4-yl}phenyl)(methylamino)carboxamide]	< 1000 nM	< 1000 nM	–	–	–	–	–
CNC(=O)Nc1ccc(-c2nc(N3CC4CCC(C3)O4)nc3c2cnn3C2CCOCC2)cc1 [Example 14, 1-methyl-3-[4-[6-(8-oxa-3-azabicyclo[3.2.1]octan-3-yl)-1-tetrahydropyran-4-yl-pyrazolo[3,4-d]pyrimidin-4-yl]phenyl]urea]	< 1000 nM	< 1000 nM	–	–	–	–	–
CNC(=O)Nc1ccc(-c2nc(N3CCOC[C@@H]3C)nc3c2cnn3C2CCOCC2)cc1 [Example 15, 1-methyl-3-[4-[6-[(3S)-3-methylmorpholin-4-yl]-1-tetrahydropyran-4-yl-pyrazolo[3,4-d]pyrimidin-4-yl]phenyl]urea]	< 1000 nM	< 1000 nM	< 110 nM	> 100 nM	> 100 nM	> 100 nM	> 100 nM
CNC(=O)Nc1ccc(-c2nc(N3CCOCC3)nc3c2cnn3C2CCCC2)cc1 [Example 24, N-[4-(1-cyclopentyl-6-morpholin-4-ylpyrazolo[4,5-e]pyrimidin-4-yl)phenyl](methylamino)carboxamide]	< 1000 nM	< 1000 nM	–	–	–	–	–
CNC(=O)Nc1ccc(-c2nc(N3CCOCC3)nc3c2cnn3C2CCN(C(=O)OC)CC2)cc1 [Example 6, methyl 4-[4-[4-(methylcarbamoylamino)phenyl]-6-morpholino-pyrazolo[3,4-d]pyrimidin-1-yl]piperidine-1-carboxylate]	–	–	< 110 nM	> 100 nM	> 100 nM	> 100 nM	> 100 nM
CNC(=O)Nc1ccc(-c2nc(N3CCOC[C@H]3C)nc3c2cnn3CC(C)(C)O)cc1 [Example 17, N-{4-[6-((3R)-3-methylmorpholin-4-yl)-1-(2-hydroxy-2-methylpropyl)pyrazolo[4,5-e]pyrimidin-4-yl]phenyl}(methylamino)carboxamide]	–	–	< 110 nM	> 100 nM	> 100 nM	> 100 nM	> 100 nM
CNC(=O)Nc1ccc(-c2nc(N3CCOCC3)nc3c2cnn3C2CCOCC2)cc1 [Example 13, 1-methyl-3-[4-(6-morpholino-1-tetrahydropyran-4-yl-pyrazolo[3,4-d]pyrimidin-4-yl)phenyl]urea]	< 1000 nM	< 1000 nM	< 110 nM	> 100 nM	> 100 nM	> 100 nM	> 100 nM
CNC(=O)Nc1ccc(-c2nc(N3CCOCC3)nc3c2cnn3C2CCN(C(=O)[C@H](C)O)CC2)cc1 [Example 10, 1-[4-[1-[1-[(2S)-2-hydroxypropanoyl]-4-piperidyl]-6-morpholino-pyrazolo[3,4-d]pyrimidin-4-yl]phenyl]-3-methylurea]	< 1000 nM	< 1000 nM	–	–	–	–	–
CCNC(=O)Nc1ccc(-c2nc(N3CCOCC3)nc3c2cnn3CC(C)(C)O)cc1 [Example 1, 1-ethyl-3-[4-[1-(2-hydroxy-2-methyl-propyl)-6-morpholino-pyrazolo[3,4-d]pyrimidin-4-yl]phenyl]urea]	< 1000 nM	< 1000 nM	< 110 nM	> 100 nM	> 100 nM	> 100 nM	> 100 nM
CNC(=O)Nc1ccc(-c2nc(N3CCOCC3)nc3c2cnn3C2CCN(C(=O)COC)CC2)cc1 [Example 11, 1-[4-[1-[1-(2-methoxyacetyl)-4-piperidyl]-6-morpholino-pyrazolo[3,4-d]pyrimidin-4-yl]phenyl]-3-methyl-urea]	< 1000 nM	< 1000 nM	–	–	–	–	–
CNC(=O)Nc1ccc(-c2nc(N3CCOC[C@@H]3C)nc3c2cnn3C2CCCC2)cc1 [Example 25, N-{4-[6-((3S)-3-methylmorpholin-4-yl)-1-cyclopentylpyrazolo[4,5-e]pyrimidin-4-yl]phenyl}(methylamino)carboxamide]	< 1000 nM	< 1000 nM	–	–	–	–	–
CNC(=O)Nc1ccc(-c2nc(N3CCOC[C@@H]3C)nc3c2cnn3CC(C)(C)O)cc1 [Example 16, N-{4-[6-((3S)-3-methylmorpholin-4-yl)-1-(2-hydroxy-2-methylpropyl)pyrazolo[4,5-e]pyrimidin-4-yl]phenyl}(methylamino)carboxamide]	–	–	< 110 nM	> 100 nM	> 100 nM	> 100 nM	> 100 nM
CNC(=O)Nc1ccc(-c2nc(N3CCOCC3)nc3c2cnn3C2CCN(C(=O)CO)CC2)cc1 [Example 9, 1-[4-[1-[1-(2-hydroxyacetyl)-4-piperidyl]-6-morpholino-pyrazolo[3,4-d]pyrimidin-4-yl]phenyl]-3-methyl-urea]	< 1000 nM	< 1000 nM	–	–	–	–	–
CNC(=O)Nc1ccc(-c2nc(N3CCOCC3)nc3c2cnn3C2CCC(O)CC2)cc1 (stereo not shown) [Example 22, N-{4-[1-(4-hydroxycyclohexyl)-6-morpholin-4-ylpyrazolo[4,5-e]pyrimidin-4-yl]phenyl}(methylamino)carboxamide]	< 1000 nM	< 1000 nM	–	–	–	–	–
CNC(=O)Nc1ccc(-c2nc(N3CCOCC3)nc3c2cnn3CC(C)(C)O)cc1 [Example 2, 1-[4-[1-(2-hydroxy-2-methyl-propyl)-6-morpholino-pyrazolo[3,4-d]pyrimidin-4-yl]phenyl]-3-methyl-urea]	< 1000 nM	< 1000 nM	< 110 nM	> 100 nM	> 100 nM	> 100 nM	> 100 nM
CNC(=O)Nc1ccc(-c2nc(N3CCOCC3)nc3c2cnn3C(C)C)cc1 [Example 3, 1-[4-(1-isopropyl-6-morpholino-pyrazolo[3,4-d]pyrimidin-4-yl)phenyl]-3-methyl-urea]	–	–	< 110 nM	> 100 nM	> 100 nM	> 100 nM	> 100 nM
